Test results as given in US8598339B2, “Withanolide isolated from Physalis longifolia and analogs and methods of use thereof” (University of Kansas, priority 2011, dated 2013).
Like-named read-outs stand apart in the source and are kept apart here.

Assays:
Ames test strain TA1535 = test: Ames test, TA1535
Ames test strain TA100 = test: Ames test, TA100
Ames test strain TA98 = test: Ames test, TA98
HS766T = test: Pancreatic cancer cell viability, HS766T; type: cell-based
Method: (§1) The activity of the withanolides of this invention were tested in pancreatic cancer cells. […] Moreover, IC50 values were determined for these compounds (Table 14).

[1] = system: heat shock factor (HSF) / HSE-luciferase in Hs766T cells; test: HSE-luciferase reporter, Hs766T; type: cell-based; design: dose or concentration left out as unconfirmed; conditions: heat shock 42° C. 30 minutes; recovery 8 hours
Method: To monitor the activation of heat shock factor (HSF) and heat shock-mediated signal transduction pathways, Hs766T cells were transfected with a HSE-luciferase construct, then treated with 3 mM of the selected withanolides for 8 hours. The cells were heat shocked at 42° C. for 30 minutes and allowed to recover at 37° C. for 8 hours. Cells were lysed and luciferase activity was measured on a plate reader.

Mia PaCa-2 = test: Pancreatic cancer cell viability, Mia PaCa-2; type: cell-based; conditions: Homo sapiens
Method: as §1

[2] = system: human melanoma SKMEL28 cells; test: MTS cell viability assay, SKMEL28; type: cell-based; conditions: Homo sapiens
Method: (§2) Human carcinoid cells, NCI-H727 (ATCC, Manassas, Va.), were cultured under standard conditions. Squamous cell carcinoma of head and neck cells, MDA1986 (Myers, et al. (2002) Clin. Cancer Res. 8:293) and JMAR (Swan, et al. (2003) Oral Oncol. 39:648-55); and melanoma cells lines B16F10 (ATCC, Manassas, Va.) and SKMEL28 (CLS, Eppelheim, Germany) were cultured in DMEM medium supplemented with 10% heat-inactivated fetal bovine serum (Sigma-Aldrich, St. Louis, Mo.), 1×MEM-essential amino acid, 1×MEM vitamin, and penicillin/streptomycin (Sigma-Aldrich, St. Louis, Mo.) in a humid environment of 5% CO2 at 37° C. Activity of withanolides against DRO81-1 and TT medullary thyroid cancer cells was also determined.
(§3) Cells were cultured in 96 well plates at a concentration of 1-2×10^4 cells/mL. Cell viability was assessed with the nonradioactive cell proliferation MTS assay using Cell Titer 96AQUEOUS One Solution Reagent (PROMEGA, Madison, Wis.), according to the manufacturer's instruction. After a 72-hour treatment, 20 μL of Cell Titer 96AQUEOUS One Solution Reagent were added to each well and incubated for 3 hours at 37° C. 5% CO2, and formazan absorbance was measured at 490 nm.
A cell viability MTS assay was carried out to determine the anti-cancer effect of the withanolides on human melanoma SKMEL28 cells. Cells were treated for 72 hours and cell viability was determined according to the manufacturer's instruction.

[3] = system: HSF1, Hsp70 and Hsp40 mRNA; test: HSF1, Hsp70 and Hsp40 mRNA levels; type: cell-based; conditions: Control 1.0
Method: Levels of HSF1, Hsp70 and Hsp40 mRNA were also determined in response to treatment with SX002 or X003 for 8 or 16 hours.

[4] = system: squamous cell carcinoma of head and neck cells MDA1986; test: MTS cell viability assay, MDA1986; type: cell-based
Method: as §2, §3

[5] = system: DRO81-1 medullary thyroid cancer cells; test: MTS cell viability assay, DRO81-1; type: cell-based; conditions: 72 h
Method: as §2, §3

melanoma cells B16F10 = test: MTS cell viability assay, B16F10; type: cell-based; conditions: Mus musculus
Method: as §2, §3

[6] = system: hsf1 and client proteins of Hsp90 in Hs766T cells; test: Western blot, Hs766T; type: cell-based
[7] = system: hsf1 and client proteins of Hsp90 in MIA PaCa-2 cells; test: Western blot, MIA PaCa-2; type: cell-based
[8] = system: squamous cell carcinoma of head and neck cells JMAR; test: MTS cell viability assay, JMAR; type: cell-based
Method: as §2, §3

MRC-5 = test: MTS cell viability assay, MRC-5; type: cell-based; conditions: Homo sapiens
[9] = system: human carcinoid cells NCI-H727; test: MTS cell viability assay, NCI-H727; type: cell-based; conditions: NCI-H727, 72 h
Method: as §2, §3

[10] = system: RET, mTOR, 4E-BP1, P70S6 kinase, akt, pERK in medullary thyroid cancer cells; test: Mechanistic pathway protein levels in medullary thyroid cancer cells; type: cell-based; conditions: for pERK / total and phosphorylated protein levels of RET, mTOR, 4E-BP1, P70S6 kinase: 24 hours, 0.25, 0.5, 1 or 3 μM
Method: Additional analysis of X005, X032 and X033 was carried out in medullary thyroid cancer cells. […] Therefore, this analysis indicates the importance of this double bond in the A-ring to anti-cancer activity.

## CN(N=O)C(=O)N[C@H]1C(O)O[C@H](CO)[C@@H](O)[C@@H]1O (mixture of isomers) [Streptoxotocin, reference compound]
Ames test strain TA1535; 2.5E−06 M, TA1535 +S9
  Positive Significance (− to +++): ++ (Strong positive, if p < 0.01, denoted as “++”.)
Ames test strain TA1535; 2.5E−06 M, TA1535 −S9
  Positive Significance (− to +++): +++ (Very strong positive, if p < 0.001, denoted as “+++”.)
Ames test strain TA100; 2.5E−06 M, TA100 +S9
  Positive Significance (− to +++): +++ (Very strong positive, if p < 0.001, denoted as “+++”.)
Ames test strain TA100; 2.5E−06 M, TA100 −S9
  Positive Significance (− to +++): +++ (Very strong positive, if p < 0.001, denoted as “+++”.)
Ames test strain TA98; 2.5E−06 M, TA98 +S9
  Positive Significance (− to +++): −
Ames test strain TA98; 2.5E−06 M, TA98 −S9
  Positive Significance (− to +++): −

## CC1=C(C)C(=O)O[C@@H]([C@@H](C)[C@H]2CC[C@H]3[C@@H]4C[C@H]5O[C@]56[C@@H](O)C=CC(=O)[C@]6(CO)[C@H]4CC[C@]23C)C1 (stereo in doubt) [Compound X030]
HS766T; read-out: IC50
  IC50: 800 nM
[1]
  heat shock-induced increase in luciferase activity: substantially reduced
Mia PaCa-2; MIA PaCa2, read-out: IC50
  IC50: 800 nM

## Nc1cccc2cc3ccccc3cc12 [Aminoanthracene, reference compound]
Ames test strain TA1535; 1.0E−05 M, TA1535 +S9
  Positive Significance (− to +++): +++ (Very strong positive, if p < 0.001, denoted as “+++”.)
Ames test strain TA1535; 1.0E−05 M, TA1535 −S9
  Positive Significance (− to +++): −
Ames test strain TA100; 1.0E−05 M, TA100 +S9
  Positive Significance (− to +++): +++ (Very strong positive, if p < 0.001, denoted as “+++”.)
Ames test strain TA100; 1.0E−05 M, TA100 −S9
  Positive Significance (− to +++): −
Ames test strain TA98; 1.0E−05 M, TA98 +S9
  Positive Significance (− to +++): +++ (Very strong positive, if p < 0.001, denoted as “+++”.)
Ames test strain TA98; 1.0E−05 M, TA98 −S9
  Positive Significance (− to +++): −

## CC(=O)OCC1=C(C)C[C@H]([C@@H](C)C2CC[C@H]3[C@@H]4C[C@H]5O[C@]56[C@@H](OC(C)=O)C=CC(=O)[C@]6(CO)[C@H]4CC[C@]23C)OC1=O (stereo partly drawn) [Compound X002, 4,27-diactyl X001]
[2]; SK-MEL-28, 72 h, Table 1, 72-hour treatment
  IC50: 810 nM
[2]; SK-MEL-28, 72 h, Table 3, treated for 72 hours, NA = no activity
  IC50: 1250 nM
HS766T
  IC50: 400 nM
[1]
  heat shock-induced increase in luciferase activity: substantially reduced
[3]; 8 hours
  HSF1 mRNA level: 1.3
  HSP40 mRNA level: 13.1
  HSP70 mRNA level: 56.6
[3]; 16 hours
  HSF1 mRNA level: 1.1
  HSP40 mRNA level: 15.3
  HSP70 mRNA level: 196.7
[4]; Table 1, 72-hour treatment
  IC50: 2240 nM
[5]
  IC50: 480 nM
Melanoma cells B16F10; B16-F10, Table 1, 72-hour treatment
  IC50: 98 nM
[6]
  stress and client protein response (western blot): induced oxidative and proteotoxic stress, while depleting hsf1 and client proteins of Hsp90
[7]
  stress and client protein response (western blot): induced oxidative and proteotoxic stress, while depleting hsf1 and client proteins of Hsp90
Mia PaCa-2
  IC50: 220 nM
[8]; Table 1, 72-hour treatment
  IC50: 140 nM
MRC-5; MRC5, Table 1, 72-hour treatment
  IC50: 410 nM
[9]
  IC50: 370 nM

## CC1=C(CO)C(=O)O[C@@H]([C@@H](C)[C@H]2CC[C@H]3[C@@H]4C[C@H]5O[C@]56[C@@H](O)C=CC(=O)[C@]6(C)[C@H]4[C@@H](O)C[C@]23C)C1 [Compound X004]
[2]; SK-MEL-28, Table 5
  IC50: 2990 nM
HS766T; read-out: IC50
  IC50: 1600 nM
[4]; Table 5
  IC50: 2640 nM
Melanoma cells B16F10; B16-F10, Table 5
  IC50: 490 nM
Mia PaCa-2; MIA PaCa2, read-out: IC50
  IC50: 1300 nM
[8]; Table 5
  IC50: 770 nM
MRC-5; MRC5, Table 5
  IC50: 3600 nM

## CO[C@H]1CC(=O)[C@]2(CO)[C@H]3CC[C@]4(C)[C@@H]([C@H](C)[C@H]5CC(C)=C(CO)C(=O)O5)CC[C@H]4[C@@H]3C[C@H]3O[C@]32[C@H]1O [Compound X005]
[2]; SK-MEL-28, Table 5
  IC50: 9270 nM
[4]; Table 5
  IC50: > 25000 nM
Melanoma cells B16F10; B16-F10, Table 5
  IC50: 3210 nM
[10]; medullary thyroid cancer cells
  RET, mTOR, 4E-BP1, p70S6 kinase and akt levels: dose-dependent increase
[8]; Table 5
  IC50: 4690 nM
MRC-5; MRC5, Table 5
  IC50: 6500 nM

## CC1=C(CO)C(=O)O[C@@H]([C@@H](C)[C@H]2CC[C@H]3[C@@H]4C[C@H]5O[C@]56[C@@H](O)[C@@H](OS(=O)(=O)O)CC(=O)[C@]6(CO)[C@H]4CC[C@]23C)C1 [Compound X017]
[2]; SK-MEL-28, Table 5
  IC50: 4800 nM
HS766T; read-out: IC50
  IC50: 1800 nM
[4]; Table 5
  IC50: 2020 nM
Melanoma cells B16F10; B16-F10, Table 5
  IC50: 1330 nM
Mia PaCa-2; MIA PaCa2, read-out: IC50
  IC50: 1400 nM
[8]; Table 5
  IC50: 2250 nM
MRC-5; MRC5, Table 5
  IC50: 3330 nM

## CC(=O)O[C@H]1C=CC(=O)[C@]2(CO)[C@H]3CC[C@]4(C)[C@@H]([C@H](C)[C@H]5CC(C)=C(C)C(=O)O5)CC[C@H]4[C@@H]3C[C@H]3O[C@]132 [Compound X032]
[2]; SK-MEL-28, Table 5
  IC50: 640 nM
[4]; Table 5
  IC50: 490 nM
Melanoma cells B16F10; B16-F10, Table 5
  IC50: 190 nM
[10]
  pERK: increased at higher concentrations
  total and phosphorylated protein levels of RET, mTOR, 4E-BP1, P70S6 kinase: dose-dependent down-regulation
[10]; medullary thyroid cancer cells
  potency in pathway analysis relative to X001: more potent than X001
[8]; Table 5
  IC50: 120 nM
MRC-5; MRC5, Table 5
  IC50: 160 nM

## CC(=O)OC[C@]12C(=O)C=C[C@H](OC(C)=O)[C@]13O[C@@H]3C[C@H]1[C@@H]3CC[C@H]([C@H](C)[C@H]4CC(C)=C(C)C(=O)O4)[C@@]3(C)CC[C@@H]12 [Compound X033]
[2]; SK-MEL-28, Table 5
  IC50: 270 nM
[4]; Table 5
  IC50: 110 nM
Melanoma cells B16F10; B16-F10, Table 5
  IC50: 130 nM
[10]
  pERK: increased at higher concentrations
  total and phosphorylated protein levels of RET, mTOR, 4E-BP1, P70S6 kinase: dose-dependent down-regulation
[10]; medullary thyroid cancer cells
  potency in pathway analysis relative to X001: more potent than X001
[8]; Table 5
  IC50: 240 nM
MRC-5; MRC5, Table 5
  IC50: 510 nM

## CC1=C(CO)C(=O)O[C@@H]([C@@H](C)[C@H]2CC[C@H]3[C@@H]4C[C@H]5O[C@]56[C@@H](OC(=O)N(C)C)C=CC(=O)[C@]6(CO)[C@H]4CC[C@]23C)C1 [HFM-JA-403]
[2]; SK-MEL-28, Table 5
  IC50: 2310 nM
[4]; Table 5
  IC50: 2480 nM
Melanoma cells B16F10; B16-F10, Table 5
  IC50: 280 nM
[8]; Table 5
  IC50: 550 nM
MRC-5; MRC5, Table 5
  IC50: 690 nM

## O=c1c(O)c(-c2ccc(O)c(O)c2)oc2cc(O)cc(O)c12 [Quercetin, reference compound]
Ames test strain TA1535; 3.0E−05 M, TA1535 +S9
  Positive Significance (− to +++): −
Ames test strain TA1535; 3.0E−05 M, TA1535 −S9
  Positive Significance (− to +++): −
Ames test strain TA100; 3.0E−05 M, TA100 +S9
  Positive Significance (− to +++): −
Ames test strain TA100; 3.0E−05 M, TA100 −S9
  Positive Significance (− to +++): −
Ames test strain TA98; 3.0E−05 M, TA98 +S9
  Positive Significance (− to +++): +++ (Very strong positive, if p < 0.001, denoted as “+++”.)
Ames test strain TA98; 3.0E−05 M, TA98 −S9
  Positive Significance (− to +++): +++ (Very strong positive, if p < 0.001, denoted as “+++”.)
